The source of these data is patent publication US6638973B2, “Taxane formulations” (FSU Research Foundation, Inc., priority 2000, dated 2003).

pIC50: −log10 of the molar value.

One assay deals with HCT116 cells. Description: In vitro cytotoxicity measured by the cell colony formation assay. The note with it: HCT116 cells, 72 h incubation with drug, colonies counted after 7 days; ID50 = drug concentration producing 50% inhibition of colony formation; read-out: IN VITRO ID 50 (nm) HCT116. It counts as cell-based. How it is done:
(§1) Four hundred cells (HCT116) were plated in 60 mm Petri dishes containing 2.7 mL of medium (modified McCoy's 5a medium containing 10% fetal bovine serum and 100 units/mL penicillin and 100 µg/mL streptomycin). The cells were incubated in a CO2 incubator at 37° C. for 5 h for attachment to the bottom of Petri dishes. The compounds identified in Example 2 were made up fresh in medium at ten times the final concentration, and then 0.3 mL of this stock solution was added to the 2.7 mL of medium in the dish. The cells were then incubated with drugs for 72 h at 37° C. At the end of incubation the drug-containing media were decanted, the dishes were rinsed with 4 mL of Hank's Balance Salt Solution (HBSS), 5 mL of fresh medium was added, and the dishes were returned to the incubator for colony formation. The cell colonies were counted using a colony counter after incubation for 7 days.
as §1, with “Example 7” for “Example 2”
as §1, with “Example 22” for “Example 2”
as §1, with “Example 27” for “Example 2”
Four hundred cells (HCT116) were plated in 60 mm Petri dishes containing 2.7 mL of medium (modified McCoy's 5a medium containing 10% fetal bovine serum and 100 units/mL penicillin and 100 µg/mL streptomycin). The cells were incubated in a CO2 incubator at 37° C. for 5 h for attachment to the bottom of Petri dishes. […]
For the compound `CCOC(=O)OC1C(=O)C2(C)C(O)CC3OCC3(OC(C)=O)C2C(OC(=O)c2ccccc2)C2(O)CC(OC(=O)C(O)C(NC(=O)OC(C)(C)C)c3cccs3)C(C)=C1C2(C)C` (stereo not shown) [Compound 1755], the pIC50 was > 9.00.
Same read-out and setting: next, `CCOC(=O)O[C@H]1C(=O)[C@@]2(C)C([C@H](OC(=O)c3ccccc3)[C@]3(O)C[C@H](OC(=O)[C@H](O)[C@@H](NC(=O)OC(C)(C)C)C(C)C)C(C)=C1C3(C)C)[C@]1(OC(C)=O)CO[C@@H]1C[C@@H]2O` (stereo partly shown) [Compound 1767]: > 8.00; `CCOC(=O)O[C@H]1C(=O)[C@@]2(C)C([C@H](OC(=O)c3ccccc3)[C@]3(O)C[C@H](OC(=O)[C@H](O)[C@@H](NC(=O)OC(C)(C)C)c4ccccc4)C(C)=C1C3(C)C)[C@]1(OC(C)=O)CO[C@@H]1C[C@@H]2O` (stereo partly shown) [Compound 1771]: > 8.00.
For the compound `CCOC(=O)O[C@H]1C(=O)[C@@]2(C)C([C@H](OC(=O)c3ccccc3)[C@]3(O)C[C@H](OC(=O)[C@H](O)[C@H](C=C(C)C)NC(=O)OC(C)(C)C)C(C)=C1C3(C)C)[C@]1(OC(C)=O)CO[C@@H]1C[C@@H]2O` (stereo partly shown) [Compound 1781], the pIC50 was > 9.00.
For the compound `CCOC(=O)O[C@H]1C(=O)[C@@]2(C)C([C@H](OC(=O)c3ccccc3)[C@]3(O)C[C@H](OC(=O)[C@H](O)[C@H](C=C(C)C)NC(=O)OC(C)(C)C)C(C)=C1C3(C)C)[C@]1(OC(C)=O)CO[C@@H]1C[C@@H]2O` (stereo partly shown) [Compound 1788], the pIC50 was > 9.00.
For `CCOC(=O)O[C@H]1C(=O)[C@@]2(C)C([C@H](OC(=O)c3ccccc3)[C@]3(O)C[C@H](OC(=O)[C@H](O)[C@@H](NC(=O)OC(C)(C)C)c4ccccn4)C(C)=C1C3(C)C)[C@]1(OC(C)=O)CO[C@@H]1C[C@@H]2O` (stereo partly shown) [Compound 1799], the pIC50 is > 9.00.
For the compound `CCOC(=O)O[C@H]1C(=O)[C@@]2(C)C([C@H](OC(=O)c3ccccc3)[C@]3(O)C[C@H](OC(=O)[C@H](O)[C@@H](NC(=O)OC(C)(C)C)c4cccnc4)C(C)=C1C3(C)C)[C@]1(OC(C)=O)CO[C@@H]1C[C@@H]2O` (stereo partly shown) [Compound 1808], the pIC50 is > 8.00.
The same measure, in the same setting: the same measure for `CCOC(=O)O[C@H]1C(=O)[C@@]2(C)C([C@H](OC(=O)c3ccccc3)[C@]3(O)C[C@H](OC(=O)[C@H](O)[C@@H](NC(=O)OC(C)(C)C)c4ccncc4)C(C)=C1C3(C)C)[C@]1(OC(C)=O)CO[C@@H]1C[C@@H]2O` (stereo partly shown) [Compound 1811]: > 9.00; for `CCOC(=O)O[C@H]1C(=O)[C@@]2(C)C([C@H](OC(=O)c3ccccc3)[C@]3(O)C[C@H](OC(=O)[C@H](O)[C@@H](NC(=O)OC(C)(C)C)c4ccco4)C(C)=C1C3(C)C)[C@]1(OC(C)=O)CO[C@@H]1C[C@@H]2O` (stereo partly shown) [Compound 1822]: > 9.00.
Regarding `CCOC(=O)O[C@H]1C(=O)[C@@]2(C)C([C@H](OC(=O)c3ccccc3)[C@]3(O)C[C@H](OC(=O)[C@H](O)[C@@H](NC(=O)OC(C)(C)C)c4ccoc4)C(C)=C1C3(C)C)[C@]1(OC(C)=O)CO[C@@H]1C[C@@H]2O` (stereo partly shown) [Compound 1838], the pIC50 is > 9.00.
As to `CCOC(=O)O[C@H]1C(=O)[C@@]2(C)C([C@H](OC(=O)c3ccccc3)[C@]3(O)C[C@H](OC(=O)[C@H](O)[C@@H](NC(=O)OC(C)(C)C)c4ccsc4)C(C)=C1C3(C)C)[C@]1(OC(C)=O)CO[C@@H]1C[C@@H]2O` (stereo partly shown) [Compound 1841], the pIC50 is > 9.00.
The same measure, in the same setting: the same measure for `CCOC(=O)O[C@H]1C(=O)[C@@]2(C)C([C@H](OC(=O)c3ccccc3)[C@]3(O)C[C@H](OC(=O)[C@H](O)[C@@H](NC(=O)OC(C)(C)C)C4CCC4)C(C)=C1C3(C)C)[C@]1(OC(C)=O)CO[C@@H]1C[C@@H]2O` (stereo partly shown) [Compound 1855]: > 8.00.
On to `CCOC(=O)O[C@H]1C(=O)[C@@]2(C)C([C@H](OC(=O)c3ccccc3)[C@]3(O)C[C@H](OC(=O)[C@H](O)[C@@H](NC(=O)OC(C)(C)C)c4ccc([N+](=O)[O-])cc4)C(C)=C1C3(C)C)[C@]1(OC(C)=O)CO[C@@H]1C[C@@H]2O` (stereo partly shown) [Compound 1866], for which the pIC50 is > 9.00.

Staying with this assay, now noted: HCT116 colony formation; 72 h drug incubation, colonies counted after 7 days; Example 5, C-7 ester/C-10 hydroxy taxanes; read-out: IN VITRO ID 50 (nm) HCT116.
With `CCC(=O)O[C@H]1C[C@H]2OC[C@@]2(OC(C)=O)C2[C@H](OC(=O)c3ccccc3)[C@]3(O)C[C@H](OC(=O)[C@H](O)[C@@H](NC(=O)OC(C)(C)C)c4cccnc4)C(C)=C([C@@H](O)C(=O)[C@@]21C)C3(C)C` (stereo partly shown) [Compound 1372], the pIC50 was 7.58.
For the compound `CCC(=O)O[C@H]1C[C@H]2OC[C@@]2(OC(C)=O)C2[C@H](OC(=O)c3ccccc3)[C@]3(O)C[C@H](OC(=O)[C@H](O)[C@@H](NC(=O)OC(C)(C)C)c4ccncc4)C(C)=C([C@@H](O)C(=O)[C@@]21C)C3(C)C` (stereo partly shown) [Compound 1386], the pIC50 was > 9.00.
`CCC(=O)OC1CC2OCC2(OC(C)=O)C2C(OC(=O)c3ccccc3)C3(O)CC(OC(=O)C(O)C(NC(=O)OC(C)(C)C)c4ccco4)C(C)=C(C(O)C(=O)C12C)C3(C)C` (stereo not shown) [Compound 1393, 3′-Desphenyl-3′-(2-furyl)-7-propionyl taxotere]: the pIC50 was > 9.00.
For `CCC(=O)O[C@H]1C[C@H]2OC[C@@]2(OC(C)=O)C2[C@H](OC(=O)c3ccccc3)[C@]3(O)C[C@H](OC(=O)[C@H](O)[C@@H](NC(=O)OC(C)(C)C)c4ccoc4)C(C)=C([C@@H](O)C(=O)[C@@]21C)C3(C)C` (stereo partly shown) [Compound 1401], the pIC50 is > 9.00.
Turning to `CCC(=O)O[C@H]1C[C@H]2OC[C@@]2(OC(C)=O)C2[C@H](OC(=O)c3ccccc3)[C@]3(O)C[C@H](OC(=O)[C@H](O)[C@@H](NC(=O)OC(C)(C)C)c4ccsc4)C(C)=C([C@@H](O)C(=O)[C@@]21C)C3(C)C` (stereo partly shown) [Compound 1424], the pIC50 is > 9.00.
Still for that read-out and setting: the same measure for `CCC(=O)O[C@H]1C[C@H]2OC[C@@]2(OC(C)=O)C2[C@H](OC(=O)c3ccccc3)[C@]3(O)C[C@H](OC(=O)[C@H](O)[C@@H](NC(=O)OC(C)(C)C)C(C)C)C(C)=C([C@@H](O)C(=O)[C@@]21C)C3(C)C` (stereo partly shown) [Compound 1434]: > 8.00; for `CCC(=O)O[C@H]1C[C@H]2OC[C@@]2(OC(C)=O)C2[C@H](OC(=O)c3ccccc3)[C@]3(O)C[C@H](OC(=O)[C@H](O)[C@@H](NC(=O)OC(C)(C)C)C4CCC4)C(C)=C([C@@H](O)C(=O)[C@@]21C)C3(C)C` (stereo partly shown) [Compound 1447]: > 8.00; for `CCC(=O)O[C@H]1C[C@H]2OC[C@@]2(OC(C)=O)C2[C@H](OC(=O)c3ccccc3)[C@]3(O)C[C@H](OC(=O)[C@H](O)[C@@H](NC(=O)OC(C)(C)C)c4ccccc4)C(C)=C([C@@H](O)C(=O)[C@@]21C)C3(C)C` (stereo partly shown) [Compound 1458]: > 8.00.

Still in this assay, the particulars now being: HCT116 colony formation; 72 h drug incubation, colonies counted after 7 days; Example 10, C-10 ester/C-7 hydroxy taxanes; read-out: IN VITRO ID 50 (nm) HCT116.
With `CC(=O)OC12COC1CC(O)C1(C)C(=O)C(OC(=O)c3cccs3)C3=C(C)C(OC(=O)C(O)C(C=C(C)C)NC(=O)OC(C)(C)C)CC(O)(C(OC(=O)c4ccccc4)C21)C3(C)C` (stereo not shown) [Compound 1879], the pIC50 was > 8.00.
On the same count and under the same terms, the same measure for `CC(=O)OC12COC1CC(O)C1(C)C(=O)C(OC(=O)c3cccs3)C3=C(C)C(OC(=O)C(O)C(NC(=O)OC(C)(C)C)c4ccccn4)CC(O)(C(OC(=O)c4ccccc4)C21)C3(C)C` (stereo not shown) [Compound 1883]: > 8.00; for `CC(=O)OC12COC1CC(O)C1(C)C(=O)C(OC(=O)c3cccs3)C3=C(C)C(OC(=O)C(O)C(NC(=O)OC(C)(C)C)c4ccco4)CC(O)(C(OC(=O)c4ccccc4)C21)C3(C)C` (stereo not shown) [Compound 1892]: > 9.00; for `CC(=O)OC12COC1CC(O)C1(C)C(=O)C(OC(=O)c3cccs3)C3=C(C)C(OC(=O)C(O)C(NC(=O)OC(C)(C)C)c4cccs4)CC(O)(C(OC(=O)c4ccccc4)C21)C3(C)C` (stereo not shown) [Compound 1900]: > 9.00.
